# Measurements published in US4904660A, “Histidine derivatives as superior renin inhibitors” (Yamanouchi Pharmaceutical Co., Ltd., priority 1987, dated 1990).
# Target: T1, human plasma renin (Homo sapiens, UniProt P00797)
# T1 construct: Into human plasma; from tissue; host or cells: human plasma
# T1 sequence (P00797 67-406): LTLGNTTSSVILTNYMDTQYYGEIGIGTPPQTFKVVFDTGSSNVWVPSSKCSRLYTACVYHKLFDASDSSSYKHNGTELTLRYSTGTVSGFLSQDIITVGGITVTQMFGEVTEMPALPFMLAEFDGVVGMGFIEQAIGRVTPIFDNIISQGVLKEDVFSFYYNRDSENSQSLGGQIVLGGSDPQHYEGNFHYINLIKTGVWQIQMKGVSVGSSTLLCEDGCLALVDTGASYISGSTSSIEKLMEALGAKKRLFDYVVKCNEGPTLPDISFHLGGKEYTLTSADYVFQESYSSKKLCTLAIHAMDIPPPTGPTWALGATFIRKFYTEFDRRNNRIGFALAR
# Assay: Inhibiting effect to human plasma renin
# Assay type: biochemical
# Details: angiotensin I formation by radio-immunoassay, 37° C., 2 hours, pH4.6, read-out: IC50 /human plasma (50% inhibiting concentration)
# Procedure: (1) Inhibiting effect to human plasma renin.
# Into human plasma (250 μl) having 0.5 ng/ml/hr (37° C.)-angiotensin I forming activity was added 225 μl of an enzyme-inhibitor (BAL, […], pH4.6) and 25 μl of a solution of the test compound in dimethylsulfoxide, and the mixture was stirred. Some portion of the stirred mixture was subjected to incubation at 37° C. for 2 hours, and the rest of the mixture was left at 4° C. Taking 100 μl of each of the mixtures, by measuring the difference of the angiotensin I forming amount by radio-immunoassay at 37° C. and 4° C., the 50% inhibiting concentration IC50 (M) was calculated.
row,IC50,Structure (SMILES)
1,0.5 nM,"Cn1nnnc1SCC(O)[C@H](CC1CCCCC1)NC(=O)[C@H](Cc1cnc[nH]1)NC(=O)C(CC(=O)N1CCOCC1)Cc1cccc2ccccc12 (stereo partly drawn) [Example 7, (2RS,3S)-3-[N-[1,4-dioxo-4-morpholino-2-(1-naphthylmethyl)butyl-L-histidylamino)]-4-cyclohexyl-1-(1-methyl-5-tetrazolylthio]-2-butanol]"
2,4 nM,Cn1nnnc1SCC(O)[C@H](CC1CCCCC1)NC(=O)[C@H](Cc1cnc[nH]1)NC(=O)[C@H](Cc1ccccc1)NC(=O)OC(C)(C)C (stereo partly drawn) [Example 9]
3,4 nM,CC(C)OC(=O)C(O)[C@H](CC1CCCCC1)NC(=O)[C@H](Cc1c[nH]cn1)NC(=O)C(CC(=O)N1CCOCC1)Cc1cccc2ccccc12 (stereo partly drawn) [Example 40]
